# “Also recorded” adds a separate entry of the source. Where two headings read alike, the source gives them in different places.
# Legend:
# [1] = system: Shh signaling in ShhLIGHT2 cells; test: ShhLIGHT2 signaling assay (Gli-responsive Firefly:Renilla luciferase ratio); assay type: cell-based, mammalian; settings: for effect on signaling in ShhLIGHT2 cells (pure compounds, column fractions): cells stimulated with non-lipoprotein-associated Shh; for inhibits Shh signaling: at 30µM
# Procedure: HeLa cells were passaged in DMEM with 10% fetal bovine serum (FBS, Gibco), 50 U/ml penicillin and 50µg/ml streptomycin (Gibco). To prepare non-lipoprotein-associated Shh, HeLa cells were transfected with plasmids encoding human Shh using polyethylenimine (Polysciences) in OptiMem (Invitrogen), then switched Shh-transfected HeLa cells to serum-free media (DMEM +1% Insulin-Transferrin-Selenium mixture (ITS-X, Gibco) 4 h post transfection. After 48 h, conditioned media were centrifuged at 1000 g for 20 min and concentrated using Amicon Ultra -10K (Millipore) for use in the signaling assay. Identically treated media from nontransfected HeLa cells were used as controls.
# Shh-LIGHT2 cells (Taipale et al., 2000) were maintained in DMEM + 10% FBS, 150 µg/ml zeocin (Invitrogen) and 400 µg/ml G418 (Invitrogen). 24 h prior to assay, cells were plated at […] in 96-well plates. Cells were then switched to a serum-free medium consisting of DMEM + 1% ITS-X, and supplemented with combinations of Shh and different lipids. Lipids were added in DMSO. Luciferase activity was assayed in cell lysates after 24 h, as instructed by the manufacturer (Dual Glo Luciferase Assay, Promega).
# Smo = molecular target: T1, Smo (Drosophila melanogaster, UniProt P91682); test: Drosophila wing disc assay, Smo staining; settings: for ectopic Smo accumulation / stabilization: LppRNAi wing discs, DOPC liposomes, 2 hours; for effects on Hh signaling in Drosophila: wing discs, judged from Smo and Ci155 accumulation
# T1 construct: from tissue; host or cells: explanted wing imaginal discs from wild type and LppRNAi Drosophila larvae
# T1 sequence (P91682 32-1036): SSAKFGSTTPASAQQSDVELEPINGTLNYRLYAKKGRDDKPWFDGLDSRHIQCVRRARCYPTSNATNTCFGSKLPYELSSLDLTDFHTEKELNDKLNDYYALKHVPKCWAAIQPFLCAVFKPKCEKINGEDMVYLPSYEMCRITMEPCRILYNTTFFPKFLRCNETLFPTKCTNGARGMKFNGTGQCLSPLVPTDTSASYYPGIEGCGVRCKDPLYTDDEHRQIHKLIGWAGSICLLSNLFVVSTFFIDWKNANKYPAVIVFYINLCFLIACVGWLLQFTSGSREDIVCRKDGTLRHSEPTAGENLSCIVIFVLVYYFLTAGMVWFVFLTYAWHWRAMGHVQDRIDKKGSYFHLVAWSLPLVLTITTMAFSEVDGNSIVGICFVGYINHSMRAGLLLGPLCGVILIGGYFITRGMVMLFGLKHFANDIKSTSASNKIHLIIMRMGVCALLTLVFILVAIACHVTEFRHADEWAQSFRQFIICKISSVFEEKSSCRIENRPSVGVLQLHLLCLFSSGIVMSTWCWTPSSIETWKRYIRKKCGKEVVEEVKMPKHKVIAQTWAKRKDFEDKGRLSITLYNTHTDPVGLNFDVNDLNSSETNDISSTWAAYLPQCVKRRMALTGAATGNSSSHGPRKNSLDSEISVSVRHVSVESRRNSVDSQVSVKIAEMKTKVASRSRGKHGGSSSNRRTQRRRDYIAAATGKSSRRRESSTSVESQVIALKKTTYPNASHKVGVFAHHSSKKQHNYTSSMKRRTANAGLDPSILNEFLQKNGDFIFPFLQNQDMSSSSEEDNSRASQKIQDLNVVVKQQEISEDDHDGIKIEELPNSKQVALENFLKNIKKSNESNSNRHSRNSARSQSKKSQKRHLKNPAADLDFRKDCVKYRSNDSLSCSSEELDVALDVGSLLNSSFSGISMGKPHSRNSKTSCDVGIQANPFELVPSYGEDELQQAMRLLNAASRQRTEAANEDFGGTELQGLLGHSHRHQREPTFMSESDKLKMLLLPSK
# Procedure: (§1) Imaginal discs were fixed and stained as previously described (Marois et al., 2006). Antibodies were diluted as follows: anti-Ci 2A1 1:10 (Wang and Holmgren, Development, 126(22): p. 5097-106 (1999)), anti-Smo 1:50 (Lum et al., Mol Cell, 12(5): p. 1261-74 (2003)).
# (§2) All quantified immunostaining was performed on discs that were dissected, fixed, stained and imaged in parallel using the same microscope settings. To quantify Ci155 and Smo staining intensities, three apical sections 0.7 µm apart were projected using maximal intensity in ImageJ. For each image, two rectangles of 100 pixels parallel to the A/P axis by 351 pixels parallel to the D/V axis were selected and centered at the A/P boundary in ventral and dorsal compartments. Average pixel intensity was determined as a function of distance from A/P boundary using PlotProfile and plotted using Microsoft Excel. All A/P boundaries were determined according to anti-Ci155 coimmunostaining. To estimate the significance of changes in staining intensities in discs of different genotypes, we measured Smo or Ci staining intensity at the same distance from the A/P boundary in each disc and calculated p values using Excel.
# (§3) The assay was performed as previously described (Khaliullina et al., Development, 136(24): p. 4111-21 (2009)). Endocannabinoids were applied in DOPC vesicles at concentrations of up to 200µM.
# Ci155 = test: Drosophila wing disc assay, Ci155 staining; settings: LppRNAi wing discs, DOPC liposomes, 2 hours
# Procedure: as §1, §2, §3
# [2] = Shh Light2, 24 h, read-out: EC50 (inhibits Shh signaling)
# [3] = Shh Light2, ShhLIGHT2 cells stimulated with Shh, serum-free medium, lipid added in DMSO, luciferase after 24 h, read-out: EC50 (inhibits Shh signaling)
smiles,measurement,setting,value
"CC(C)CCC[C@@H](C)[C@H]1CC[C@H]2C3=CC=C4C[C@@H](O)CC[C@]4(C)[C@H]3CC[C@]12C [7-dehydrocholesterol, reference compound]","effect on signaling in ShhLIGHT2 cells (pure compounds, column fractions)",[1],inhibited signaling
same,ectopic Smo accumulation / stabilization,Smo,neither reversed Smo accumulation
"CCCCC/C=C\C/C=C\CCCCCCCC(=O)NCCO [N-acylethanolamide (18:2), linoleylethanolamide]",EC50 decreased by addition of FAAH inhibitor,[1],> 10 fold
same,EC50 decreased by pre-incubation with lipoproteins,[1],> 10 fold
same,EC50,[1]; [2],~15000 nM
same,EC50,"[1]; Shh Light2, in presence of PF-3845, a selective FAAH inhibitor, read-out: EC50",500 nM
same,inhibits Shh signaling,[1],almost completely
same,EC50 decreased by pre-incubation with lipoproteins,[1]; pre-incubated with lipoproteins versus added in DMSO without prior incubation,more than 10 fold
CCCCCCCC/C=C\CCCCCCCC(=O)NCCO [N-acylethanolamide (18:1)],ectopic Smo accumulation / stabilization,Smo,not decreased
same,ectopic Ci155 accumulation,Ci155,not decreased
CCCCCCCCCCCCCCCC(=O)NCCO [N-acylethanolamide (16:0)],ectopic Smo accumulation / stabilization,Smo,reverses ectopic Smo stabilization; also recorded: completely reverses ectopic accumulation of Smo
same,effects on Hh signaling in Drosophila,Smo,strong negative effects
same,ectopic Ci155 accumulation,Ci155,partially reverses Ci155 accumulation; also recorded: significantly reverses ectopic accumulation of Ci155
CCCCCCCCCCCCCCCCCC(=O)NCCO [N-acylethanolamide (18:0)],ectopic Smo accumulation / stabilization,Smo,not decreased
same,ectopic Ci155 accumulation,Ci155,not decreased
"CCCCC/C=C\C/C=C\C/C=C\C/C=C\CCCCOC(CO)CO [2-glyceryl ether (20:4), 2-arachidonyl glyceryl ether]",EC50,[1]; [3],15000 nM
same,inhibits Shh signaling,[1],almost completely
same,ectopic Smo accumulation / stabilization,Smo,no activity
same,effects on Hh signaling in Drosophila,Smo,complete inactivity
same,ectopic Ci155 accumulation,Ci155,no activity
CCCCCCCCCCCCCCCC(=O)NCCc1ccc(O)c(O)c1 [N-acyl dopamine (16:0)],ectopic Smo accumulation / stabilization,Smo,no activity
same,ectopic Ci155 accumulation,Ci155,no activity
CCCCCCCCCCCCCCCCCC(=O)NCCc1ccc(O)c(O)c1 [N-acyl dopamine (18:0)],EC50,[1]; [2],5000 nM
same,inhibition at 30 µM,"[1]; Shh Light2, read-out: inhibits Shh signaling by",80%
CCCCCc1cc(O)c2c(c1)OC(C)(C)c1ccc(C)cc1-2 [cannabinol],EC50,[1]; [3],< 1000 nM
CCCCCCCCCCCCCCCC(=O)NC(CO)C(=O)O (centres unmarked) [N-acyl serine (16:0)],EC50,"[1]; Shh Light2, ShhLIGHT2 cells stimulated with Shh, serum-free medium, lipid added in DMSO, read-out: EC50 (increases Shh signaling)",500 nM
same,increases Shh signaling by,[1]; Shh-induced Firefly:Renilla increase normalized to 100,40%
same,"effect on signaling in ShhLIGHT2 cells (pure compounds, column fractions)",[1],stimulated signaling
same,ectopic Smo accumulation / stabilization,Smo,no activity
same,ectopic Ci155 accumulation,Ci155,no activity
"CCCCC/C=C\C/C=C\C/C=C\C/C=C\CCCC(=O)NCCO [N-acylethanolamide (20:4), arachidonyl ethanolamide]",ectopic Smo accumulation / stabilization,Smo,not decreased
same,ectopic Ci155 accumulation,Ci155,not decreased
"C=C1CC[C@H](O)C/C1=C/C=C1\CCC[C@]2(C)[C@@H]([C@H](C)CCCC(C)C)CC[C@@H]12 [vitamin D3, reference compound]","effect on signaling in ShhLIGHT2 cells (pure compounds, column fractions)",[1],inhibited signaling
same,ectopic Smo accumulation / stabilization,Smo,neither reversed Smo accumulation
C=C(C)[C@@H]1CCC(C)=C[C@H]1c1c(O)cc(CCCCC)cc1O [cannabidiol],EC50,[1]; [3],< 1000 nM
